We go through 4 molecules from ChEMBL document CHEMBL2074413, “Effect of cisplatin-induced acute renal failure on bioavailability and intestinal secretion of quinolone antibacterial drugs in rats” (Pharm Res, 2004).

What all share (type): functional, cell-based
Data set [1] addresses T1, ATP-dependent translocase ABCB1 (Homo sapiens, UniProt P08183). Kind of data set: TP_TRANSPORTER: transepithelial transport (basal to apical) of Digoxin at a concentration of 58.8nM in LLC-GA5-COL150 cells. The settings on record: pig.
For data set [2], the target named is T1, ATP-dependent translocase ABCB1. Kind of data set: TP_TRANSPORTER: transepithelial transport (basal to apical) of Ciprofloxacin at 2uM in LLC-GA5-COL150 cells. The settings on record: pig, llc-ga5-col150, 2 µM.
The target is the same in data set [3]. Kind of data set: TP_TRANSPORTER: transepithelial transport (basal to apical) of Levofloxacin at a concentration of 5uM in LLC-GA5-COL150 cells. The settings on record: pig, llc-ga5-col150, 5 µM.
For data set [4] the target is unchanged. Kind of data set: TP_TRANSPORTER: transepithelial transport (basal to apical) of Grepafloxacin at a concentration of 5uM in LLC-GA5-COL150 cells. As to conditions: pig, llc-ga5-col150, 5 µM.

T1 sequence (P08183 whole entry): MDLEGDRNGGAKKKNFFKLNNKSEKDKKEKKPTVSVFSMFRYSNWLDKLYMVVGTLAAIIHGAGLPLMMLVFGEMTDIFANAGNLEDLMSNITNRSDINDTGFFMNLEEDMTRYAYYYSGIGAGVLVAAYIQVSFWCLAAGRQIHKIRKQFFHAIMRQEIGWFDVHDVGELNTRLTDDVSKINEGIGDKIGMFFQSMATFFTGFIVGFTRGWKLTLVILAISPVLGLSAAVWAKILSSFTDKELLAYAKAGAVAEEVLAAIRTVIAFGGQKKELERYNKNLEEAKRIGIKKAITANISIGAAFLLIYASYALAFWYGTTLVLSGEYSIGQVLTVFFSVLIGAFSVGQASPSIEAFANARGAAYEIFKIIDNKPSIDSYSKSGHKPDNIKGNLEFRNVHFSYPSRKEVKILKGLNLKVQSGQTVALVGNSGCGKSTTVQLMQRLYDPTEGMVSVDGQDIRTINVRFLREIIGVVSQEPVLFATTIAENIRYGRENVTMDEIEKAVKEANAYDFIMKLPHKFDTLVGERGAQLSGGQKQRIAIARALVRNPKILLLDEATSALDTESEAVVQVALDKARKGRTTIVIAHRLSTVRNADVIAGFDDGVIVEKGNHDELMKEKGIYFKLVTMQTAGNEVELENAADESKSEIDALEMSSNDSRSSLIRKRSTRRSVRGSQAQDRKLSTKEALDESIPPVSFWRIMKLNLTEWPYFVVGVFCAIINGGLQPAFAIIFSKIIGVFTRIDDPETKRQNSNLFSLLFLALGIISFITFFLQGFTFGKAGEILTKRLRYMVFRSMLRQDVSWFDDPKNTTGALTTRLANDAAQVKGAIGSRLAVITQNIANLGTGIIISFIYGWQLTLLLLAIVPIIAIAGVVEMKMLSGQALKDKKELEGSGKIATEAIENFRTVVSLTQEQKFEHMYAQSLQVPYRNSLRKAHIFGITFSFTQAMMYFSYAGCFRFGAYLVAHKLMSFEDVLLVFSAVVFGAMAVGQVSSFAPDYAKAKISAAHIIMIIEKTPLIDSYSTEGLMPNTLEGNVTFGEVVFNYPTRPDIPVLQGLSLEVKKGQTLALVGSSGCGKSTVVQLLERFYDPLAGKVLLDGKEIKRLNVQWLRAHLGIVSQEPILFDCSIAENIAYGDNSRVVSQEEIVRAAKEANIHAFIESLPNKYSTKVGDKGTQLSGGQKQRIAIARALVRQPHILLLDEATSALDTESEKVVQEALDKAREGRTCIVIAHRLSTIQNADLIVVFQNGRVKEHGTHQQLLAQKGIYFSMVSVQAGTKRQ

For the molecule `C[C@H]1O[C@@H](O[C@H]2[C@@H](O)C[C@H](O[C@H]3[C@@H](O)C[C@H](O[C@H]4CC[C@@]5(C)[C@H](CC[C@@H]6[C@@H]5C[C@@H](O)[C@]5(C)[C@@H](C7=CC(=O)OC7)CC[C@]65O)C4)O[C@@H]3C)O[C@@H]2C)C[C@H](O)[C@@H]1O` [DIGOXIN], the Activity result in data set [1] is “substrate [+]”.

In the case of `O=C(O)c1cn(C2CC2)c2cc(N3CCNCC3)c(F)cc2c1=O` [CIPROFLOXACIN], the Activity result in data set [2] was “is not a substrate [-]”.

As for `C[C@H]1COc2c(N3CCN(C)CC3)c(F)cc3c(=O)c(C(=O)O)cn1c23.C[C@H]1COc2c(N3CCN(C)CC3)c(F)cc3c(=O)c(C(=O)O)cn1c23.O` [LEVOFLOXACIN], the Activity result in data set [3] is “substrate [+]”.

As to `Cc1c(F)c(N2CCNC(C)C2)cc2c1c(=O)c(C(=O)O)cn2C1CC1` (centres undefined) [GREPAFLOXACIN], the Activity result in data set [4] is “substrate [+]”.
